Results: patent US20090181369A1, “Methods for the Treatment of Disease” (priority 2005, published 2009)

Tests used:
[1] = tested on: BaF3 cells expressing FNTB C95R; assay: soft agar colony assay (cellular IC50); conditions: Mus musculus, BaF3, 336 h, read-out: Cellular IC50
[2] = patients, reported (ref. 8); cited from earlier work
FTase, β subunit W106R = FTase, β subunit W106R (Homo sapiens, UniProt P49356, W106R); conditions: all drug concentrations
[3] = tested on: BaF3 cells expressing FNTB W106R; assay: soft agar colony assay (cellular IC50); conditions: Mus musculus, BaF3, 336 h, read-out: Cellular IC50
[4] = tested on: BaF3 cells expressing FNTB P152S; assay: cells; conditions: Mus musculus, BaF3, 336 h, read-out: Cellular IC50
[5] = tested on: BaF3 cells expressing wild-type FNTB; assay: cells; conditions: Mus musculus, BaF3, 336 h, read-out: Cellular IC50
[6] = tested on: BaF3 cells expressing FNTB G241E; assay: cells; conditions: Mus musculus, BaF3, 336 h, read-out: Cellular IC50
[7] = tested on: chronic myeloid leukemia (CML); conditions: chronic phase CML patients; cited from earlier work

| SMILES | IC50 [1] [nM] | trough plasma concentrations [2] [µM] | HDJ2 farnesylation by western blot (FTase, β subunit W106R) [%] | IC50 [3] [µM] | IC50 [4] [nM] | IC50 [5] [nM] | IC50 [6] [nM] | response rate [7] |
| --- | --- | --- | --- | --- | --- | --- | --- | --- |
| NC(=O)N1CCC(CC(=O)N2CCC([C@H]3c4ncc(Br)cc4CCc4cc(Cl)cc(Br)c43)CC2)CC1 [Lonafarnib, (+)-4-[2-[4-(8-Chloro-3,10-dibromo-6,11-dihydro-5H-benzo[5,6]cyclohepta[1,2-b]-pyridin-11(R)-yl)-1-piperidinyl]-2-oxo-ethyl]-1-piperidinecarboxamide] | 1800 | 1.5 | 100 | > 10 | 300 | 90 | 600 |  |
| Cc1ccc(NC(=O)c2ccc(CN3CCN(C)CC3)cc2)cc1Nc1nccc(-c2cccnc2)n1 [imatinib] |  |  |  |  |  |  |  | over 90% |
